What was measured:
[1] = target: Ba/F3 cells expressing EGFR H773insAH (Homo sapiens, UniProt P00533, INS773AH, cells depend on it); assay: Ba/F3 cell viability, poziotinib IC50; format: cell-based
[2] = target: Ba/F3 cells expressing EGFR V774insHV (Homo sapiens, UniProt P00533, DUP773-774, cells depend on it); assay: Ba/F3 cell viability, poziotinib IC50; format: cell-based
[3] = target: T1, Ba/F3 cells expressing EGFR S768dupSVD (Homo sapiens, UniProt P00533, DUP768-770, cells depend on it); assay: Ba/F3 cell viability, poziotinib IC50; format: cell-based
T1 construct: from pBabe-puro-EGFR WT, Addgene (#11011)
T1 sequence (P00533 with tags, fused parts or gaps DUP768-770): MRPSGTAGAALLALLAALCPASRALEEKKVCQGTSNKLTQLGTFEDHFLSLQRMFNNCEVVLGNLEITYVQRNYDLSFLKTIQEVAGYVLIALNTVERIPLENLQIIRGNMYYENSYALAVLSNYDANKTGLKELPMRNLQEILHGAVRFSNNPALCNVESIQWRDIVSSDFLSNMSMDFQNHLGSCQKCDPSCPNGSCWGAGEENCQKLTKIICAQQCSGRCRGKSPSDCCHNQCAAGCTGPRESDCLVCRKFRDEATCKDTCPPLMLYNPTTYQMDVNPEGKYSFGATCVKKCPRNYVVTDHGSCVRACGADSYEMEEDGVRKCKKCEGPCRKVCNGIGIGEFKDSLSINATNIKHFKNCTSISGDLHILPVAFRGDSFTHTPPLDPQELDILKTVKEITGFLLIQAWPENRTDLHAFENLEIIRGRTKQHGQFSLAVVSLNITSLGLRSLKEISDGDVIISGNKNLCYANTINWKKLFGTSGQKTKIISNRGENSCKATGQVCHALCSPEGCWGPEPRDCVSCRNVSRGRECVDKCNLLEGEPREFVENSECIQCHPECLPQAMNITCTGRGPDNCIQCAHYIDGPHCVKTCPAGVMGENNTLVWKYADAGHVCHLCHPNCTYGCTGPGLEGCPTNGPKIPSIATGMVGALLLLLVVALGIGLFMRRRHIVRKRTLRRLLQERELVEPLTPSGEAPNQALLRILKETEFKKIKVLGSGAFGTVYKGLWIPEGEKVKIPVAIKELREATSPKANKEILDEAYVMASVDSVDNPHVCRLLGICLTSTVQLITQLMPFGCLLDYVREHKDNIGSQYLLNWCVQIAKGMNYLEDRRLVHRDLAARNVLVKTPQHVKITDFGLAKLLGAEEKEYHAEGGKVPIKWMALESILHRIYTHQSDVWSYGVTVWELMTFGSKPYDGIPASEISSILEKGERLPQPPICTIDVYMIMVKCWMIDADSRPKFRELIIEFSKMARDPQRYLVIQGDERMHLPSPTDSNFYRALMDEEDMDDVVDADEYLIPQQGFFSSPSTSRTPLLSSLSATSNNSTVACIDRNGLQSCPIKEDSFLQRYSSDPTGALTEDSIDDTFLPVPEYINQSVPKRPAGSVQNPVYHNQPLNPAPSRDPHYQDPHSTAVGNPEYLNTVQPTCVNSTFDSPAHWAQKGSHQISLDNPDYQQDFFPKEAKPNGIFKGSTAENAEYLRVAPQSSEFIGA

[4] = target: Ba/F3 cells expressing EGFR S768I V774M (Homo sapiens, UniProt P00533, S768I/V774M, cells depend on it); assay: Ba/F3 cell viability, poziotinib IC50; format: cell-based
Ba/F3 cells expressing EGFR S768I V774M, sequence (P00533 whole entry S768I/V774M): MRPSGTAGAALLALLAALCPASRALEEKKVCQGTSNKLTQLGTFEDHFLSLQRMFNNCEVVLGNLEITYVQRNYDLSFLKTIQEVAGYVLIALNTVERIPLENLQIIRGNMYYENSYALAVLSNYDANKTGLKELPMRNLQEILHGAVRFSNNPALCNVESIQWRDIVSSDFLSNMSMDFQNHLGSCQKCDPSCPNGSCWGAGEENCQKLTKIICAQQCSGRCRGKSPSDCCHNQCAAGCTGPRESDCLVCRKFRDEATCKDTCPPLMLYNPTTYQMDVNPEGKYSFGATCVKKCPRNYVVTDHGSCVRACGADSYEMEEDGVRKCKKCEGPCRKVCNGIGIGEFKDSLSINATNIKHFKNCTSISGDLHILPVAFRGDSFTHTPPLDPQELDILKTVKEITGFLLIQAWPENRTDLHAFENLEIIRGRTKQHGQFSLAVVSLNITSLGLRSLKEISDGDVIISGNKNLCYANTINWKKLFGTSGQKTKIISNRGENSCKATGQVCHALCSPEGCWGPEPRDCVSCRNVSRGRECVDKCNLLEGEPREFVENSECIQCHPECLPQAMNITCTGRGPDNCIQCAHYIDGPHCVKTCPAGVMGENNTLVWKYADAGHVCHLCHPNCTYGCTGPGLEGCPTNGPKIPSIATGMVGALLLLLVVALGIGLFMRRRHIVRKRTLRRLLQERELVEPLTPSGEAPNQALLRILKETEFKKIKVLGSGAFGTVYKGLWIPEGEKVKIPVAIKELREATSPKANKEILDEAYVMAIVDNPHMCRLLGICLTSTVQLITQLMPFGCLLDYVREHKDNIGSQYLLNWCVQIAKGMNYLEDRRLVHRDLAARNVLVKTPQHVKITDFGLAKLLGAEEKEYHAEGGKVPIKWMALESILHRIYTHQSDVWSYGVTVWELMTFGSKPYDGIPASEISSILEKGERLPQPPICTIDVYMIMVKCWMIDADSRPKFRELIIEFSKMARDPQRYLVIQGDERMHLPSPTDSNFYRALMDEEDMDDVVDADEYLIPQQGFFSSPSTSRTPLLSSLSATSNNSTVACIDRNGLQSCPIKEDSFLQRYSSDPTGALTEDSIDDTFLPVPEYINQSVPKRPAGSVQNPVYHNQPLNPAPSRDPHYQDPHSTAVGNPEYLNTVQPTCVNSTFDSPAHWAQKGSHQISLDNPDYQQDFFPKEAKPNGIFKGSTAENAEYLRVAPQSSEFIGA

EGFR D770insNPG mice = assay: EGFR exon 20 GEMM tumor burden by MRI; format: in vivo
Procedure: EGFR D770insNPG and HER2 A775insYVMA GEMMs were generated as previously described (Perera et al., 2009; Cho et al., 2013). Mice were handled in accordance with Good Animal Practices as defined by the Office of Laboratory Animal Welfare and done in with approval from Dana-Farber Cancer Institute Institutional Animal Care and Use Committee (Boston, Mass.). Mice were fed a continuous doxycycline diet from 6 weeks of age. Tumor volume was determined by Mill as previously described (Perera et al., 2009; Cho et al., 2013). Mice with equal initial tumor volume were non-blindly randomized to vehicle and 10 mg/kg poziotinib daily upon obvious tumor formation determined by Mill. Mice humanly euthanized for events unrelated to tumor burden were excluded from final analysis.

[5] = target: Ba/F3 cells expressing EGFR S768I (Homo sapiens, UniProt P00533, S768I, cells depend on it); assay: Ba/F3 cell viability, poziotinib IC50; format: cell-based
Ba/F3 cells expressing EGFR S768I, sequence (P00533 whole entry S768I): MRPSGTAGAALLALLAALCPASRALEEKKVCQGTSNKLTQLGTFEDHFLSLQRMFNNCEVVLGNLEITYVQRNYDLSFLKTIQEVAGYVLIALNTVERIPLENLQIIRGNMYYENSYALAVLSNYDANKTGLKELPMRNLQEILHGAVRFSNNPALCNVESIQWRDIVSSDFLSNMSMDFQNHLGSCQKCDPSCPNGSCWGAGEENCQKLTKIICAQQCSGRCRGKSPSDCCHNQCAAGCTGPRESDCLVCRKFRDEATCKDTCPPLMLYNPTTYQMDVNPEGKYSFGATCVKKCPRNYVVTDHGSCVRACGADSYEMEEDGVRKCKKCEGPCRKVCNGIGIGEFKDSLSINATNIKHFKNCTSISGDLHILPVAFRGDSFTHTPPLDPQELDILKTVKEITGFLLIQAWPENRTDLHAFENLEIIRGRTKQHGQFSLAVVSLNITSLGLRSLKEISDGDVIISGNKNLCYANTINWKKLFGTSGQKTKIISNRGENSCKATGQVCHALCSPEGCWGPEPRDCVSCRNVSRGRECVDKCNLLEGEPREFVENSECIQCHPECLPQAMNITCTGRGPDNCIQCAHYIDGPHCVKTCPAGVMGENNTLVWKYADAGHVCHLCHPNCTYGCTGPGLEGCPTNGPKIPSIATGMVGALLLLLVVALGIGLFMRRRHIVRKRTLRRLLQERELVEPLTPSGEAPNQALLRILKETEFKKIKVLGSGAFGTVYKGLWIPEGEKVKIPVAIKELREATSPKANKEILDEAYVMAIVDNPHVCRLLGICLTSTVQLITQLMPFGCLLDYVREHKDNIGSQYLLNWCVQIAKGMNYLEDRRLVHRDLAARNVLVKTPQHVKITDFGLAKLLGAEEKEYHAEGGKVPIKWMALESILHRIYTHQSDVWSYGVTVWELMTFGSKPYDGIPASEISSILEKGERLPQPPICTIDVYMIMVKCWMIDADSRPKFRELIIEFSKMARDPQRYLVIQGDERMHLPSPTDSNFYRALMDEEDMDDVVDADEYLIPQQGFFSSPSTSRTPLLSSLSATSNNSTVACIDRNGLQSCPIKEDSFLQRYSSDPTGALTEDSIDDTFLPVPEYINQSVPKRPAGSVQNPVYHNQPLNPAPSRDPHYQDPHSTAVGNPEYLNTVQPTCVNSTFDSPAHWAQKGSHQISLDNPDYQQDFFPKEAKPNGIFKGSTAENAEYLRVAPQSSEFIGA

Ba/F3 cells expressing EGFR H773insAH, sequence (P00533 with tags, fused parts or gaps INS773AH): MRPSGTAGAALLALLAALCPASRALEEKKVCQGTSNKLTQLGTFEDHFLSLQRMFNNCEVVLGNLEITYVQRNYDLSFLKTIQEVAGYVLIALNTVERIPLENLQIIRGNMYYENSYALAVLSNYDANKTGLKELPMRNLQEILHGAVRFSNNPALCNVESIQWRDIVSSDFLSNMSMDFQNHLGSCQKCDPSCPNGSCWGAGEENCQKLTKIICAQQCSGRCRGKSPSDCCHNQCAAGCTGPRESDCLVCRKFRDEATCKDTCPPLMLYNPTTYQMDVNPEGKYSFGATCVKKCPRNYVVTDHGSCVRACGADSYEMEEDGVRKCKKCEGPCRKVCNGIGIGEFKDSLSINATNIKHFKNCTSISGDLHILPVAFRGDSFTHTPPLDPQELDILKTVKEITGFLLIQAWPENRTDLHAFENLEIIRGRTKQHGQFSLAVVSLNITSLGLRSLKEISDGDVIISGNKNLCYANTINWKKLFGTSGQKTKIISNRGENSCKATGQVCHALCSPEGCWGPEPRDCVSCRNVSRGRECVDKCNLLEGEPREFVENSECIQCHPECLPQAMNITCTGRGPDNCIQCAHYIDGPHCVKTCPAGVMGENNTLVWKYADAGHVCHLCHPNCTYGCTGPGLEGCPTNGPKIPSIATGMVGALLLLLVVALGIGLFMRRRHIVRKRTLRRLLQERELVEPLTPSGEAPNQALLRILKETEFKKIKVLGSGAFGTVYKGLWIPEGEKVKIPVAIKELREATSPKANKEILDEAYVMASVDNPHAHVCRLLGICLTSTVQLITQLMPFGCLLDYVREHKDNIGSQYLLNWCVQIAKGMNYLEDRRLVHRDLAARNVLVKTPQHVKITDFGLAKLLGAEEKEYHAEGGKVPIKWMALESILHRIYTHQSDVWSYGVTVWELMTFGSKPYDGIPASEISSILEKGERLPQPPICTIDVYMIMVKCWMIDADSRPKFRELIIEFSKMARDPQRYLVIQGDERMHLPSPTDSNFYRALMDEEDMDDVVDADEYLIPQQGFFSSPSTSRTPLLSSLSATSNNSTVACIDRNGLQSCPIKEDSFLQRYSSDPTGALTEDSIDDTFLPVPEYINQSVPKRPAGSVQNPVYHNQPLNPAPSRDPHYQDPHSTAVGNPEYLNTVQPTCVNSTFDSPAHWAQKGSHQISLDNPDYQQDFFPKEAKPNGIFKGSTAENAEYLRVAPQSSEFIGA

C=CC(=O)N1CCC(Oc2cc3c(Nc4ccc(Cl)c(Cl)c4F)ncnc3cc2OC)CC1 [poziotinib, 1-[4-[4-(3,4-dichloro-2-fluoroanilino)-7-methoxyquinazolin-6-yl]oxypiperidin-1-yl]prop-2-en-1-one]
GI50 [1]: 2 nM
GI50 [2]: 2.38 nM
GI50 [3]: 1.2 nM
GI50 [4]: 0.601 nM
reduction of tumor burden, EGFR exon 20 GEMM (EGFR D770insNPG mice; 10 mg/kg orally daily, 4 weeks, MRI): 85%
response at 12 weeks, EGFR GEM model (EGFR D770insNPG mice; 10 mg/kg, 5 days/week, 12 weeks): durable regression
GI50 [5]: 0.481 nM

From US20220143023A1, “COMPOUNDS WITH ANTI-TUMOR ACTIVITY AGAINST CANCER CELLS BEARING EGFR OR HER2 EXON 20 INSERTIONS” (Board of Regents, The University of Texas System, priority 2019, published 2022)
